According to patent publication US20250213560A1, “NITROGEN-CONTAINING HETEROCYCLIC COMPOUNDS HAVING PHENYL GROUP AND USES THEREOF” (BNH RESEARCH CO., LTD., priority 2022, published 2025):

Columns and labels:
293T cells = assay: Cytotoxicity test (CCK-8 cell viability) in 293T cells; assay type: cell-based, human; details: 293T cell line
Method: Human undifferentiated neuroblastoma cell line SH-SY5Y and human embryonic kidney cell line (HEK)-293T were purchased from Korean Cell Line Bank (Korea) and Takara (Japan), respectively. Cells were grown in HyClone Minimal Essential Medium (MEM) and Dulbecco's Modified Eagle Medium (DMEM), respectively, supplemented with 10% (v/v) fetal bovine serum (FBS), penicillin (100 U/mL), and streptomycin ([…]). Cells were maintained in a humidified atmosphere of 95% air and 5% CO2 at 37° C. Cells were passaged 10 times at maximum. Cells were dissociated using 0.05% trypsin-EDTA solution and the cells were seeded in new culture dishes for maintenance.
To examine the cytotoxicity of compounds described herein in human cell lines, SH-SY5Y and 293T cells were used. Approximately 8,000 cells (for 293T) and 15,000 cells (for SH-SY5Y) were plated per well of a 96-well plate (SPL Life Sciences Co., Ltd., Pocheon, Korea). After incubating at 37° C. for 24 hours in a humidified atmosphere containing 5% CO2, the culture medium was replaced by a series of concentrations of test compounds diluted in the corresponding culture medium.
The time of co-incubation was 24 hours and six replicates were made for each measurement. Finally, 10 μL of CCK-8 reagent (Dojindo Laboratories, Rockville, MD) was added to each well, and after incubation at 37° C. for 3 minutes, the OD at 450 nm was measured using a multifunction microplate reader (Tecan Infinite M200 Pro). These measurements were compared to that of a control and expressed as a percentage of the control to calculate cell viability. The IC50 value was calculated using SPSS software. To do this, the absorbance of the blank wells with only growth medium is subtracted from the values or the wells with cells. The readout value of background (vehicle) was set as a 100% viability, and then the percent viability for each test solution was calculated.
The data was presented as the mean value and standard error of the mean (S.E.M.). Statistical analysis was performed with the one-way ANOVA with Tukey's post hoc test (GraphPad Prism 5 software package, version 5.02, GraphPad Software Inc. USA). Significance was accepted at p<0.05.
The cytotoxicity of the compound was evaluated by treating cells with BnH12003 and measuring cell viability.
By treating cells with various BnH12 series compounds and measuring cell viability using the experimental procedure described in Example 2, the cytotoxicity of the compounds was evaluated.

GluN2B = GluN2B protein expression by Western blot in primary cortical neuron cells; assay type: cell-based, mouse; details: for Western blot results Mean (GluN2B expression): relative value, vehicle set to 1, primary cortical neurons treated for 24 hours; for GluN2B expression effect (in words): compared to vehicle / other compounds, Table 5
Method: Meanwhile, primary cortical neuron cells were isolated from cerebral cortices of 18-day-old mouse fetuses, incubated in prep media (composition (mM): NaCl 107.5, NaH2PO4 1, NaHCO333.5, glucose 11, HEPS 1%, penicillin-streptomycin 1%) containing 0.25% trypsin and DNasel for 30 minutes, dissociated into single cells, and seeded. Primary cortical neuron cells were grown in Neurobasal medium supplemented with 1% (v/v) B27, 1% penicillin (100 U/mL), streptomycin ([…]), and 1% Glutamax. Cells were maintained in a humidified atmosphere of 95% air and 5% CO2 at 37° C. Drug efficacy was evaluated after culturing primary cortical neuron cells for 14 days.
The amount of GluN2B reacted with the compound of the present disclosure was measured using Western blot. The fetal cerebral cortex was extracted from mice at 17 days of gestation, dissociated into single cells, cultured for 13 days, and treated with BnH drugs for 24 hours. The drug-treated cells were subjected to protein lysate preparation using RIPA protein lysis buffer containing protease and phosphatase inhibitors. The protein concentration was determined using a BCA protein assay kit (Pierce Biotechnology) using bovine serum albumin as a standard. Equal amounts of protein (20 μg per lane) were separated by electrophoresis on SDS-polyacrylamide gels at 90 V for 2 hours, then transferred from the SDS-polyacrylamide gel to PVDF membrane at 100 V for 1 hour. Then, primary reaction with GluN2B antibody (ab65783, Abcam) was performed at 4° C. for 1 day, washed three times at 10-minutes intervals with 1×PBT, and secondary reaction was performed with anti-mouse antibody (sc-2357, Santa Cruz) for 1 hour, followed by washing three times at 10-minutes intervals with 1×PBT. Western blotting was performed as described above to confirm GluN2B protein expression. Subsequently, each blot was re-probed using anti-β-actin antibody (sc-47778, Santa Cruz). Housekeeping protein B-actin was detected as a normalization control.
The increase and decrease of BnH12 series were confirmed by setting the vehicle to 1 (N for each group was 3 or more).
Using the experimental procedure described in Example 3, it was determined whether various BnH12 series compounds increase GluN2B expression, and the results are shown in Table 5. These in vitro experimental results are expressed as relative values to the group (vehicle) that was not treated with the compound, with the effect of the group set to 1.

| Compound | Cell viability test results (CCK) 10 uM (293T cells) [%<] | Cell viability test results (CCK) 100 uM (293T cells) [%<] | Western blot results Mean (GluN2B expression) (GluN2B) | GluN2B expression effect (in words) (GluN2B) |
| --- | --- | --- | --- | --- |
| C[C@H]1CC[C@@H](C(=O)O)CN1C(=O)Cc1ccc(-c2ccc(C3CCCCC3)cc2)cc1 [BnH12085, (3R,6S)-1-(2-(4′-cyclohexyl-8 1,l′-biphenyl9-4-yl)acetyl)-6-methylpiperidine-3-carboxylic acid] | 30 | 0 | 1.557 |  |
| C[C@H]1CC[C@@H](C(=O)O)CN1C(=O)Cc1ccc(-c2ccc(N)cc2)cc1 [BnH12086, (3R,6S)-1-(2-(4′-amino-8 1,l′-biphenyl9-4-yl)acetyl)-6-methylpiperidine-3-carboxylic acid] | 80 | 70 | 1.753 |  |
| C[C@H]1CC[C@@H](C(=O)O)CN1C(=O)Cc1ccc(-c2cccc(N)c2)cc1 [BnH12088, (3R,6S)-1-(2-(3′-amino-8 1,l′-biphenyl9-4-yl)acetyl)-6-methylpiperidine-3-carboxylic acid] | 90 | 90 | 1.219 |  |
| C[C@H]1CC[C@@H](C(=O)O)CN1C(=O)Cc1ccc(-c2ccc(-c3cccnc3)cc2)cc1 [BnH12089, (3R,6S)-6-methyl-1-(2-(4'-(pyridin-3-yl)-[1,1'-biphenyl]-4-yl)acetyl)piperidine-3-carboxylic acid] | 65 | 55 | 1.409 |  |
| CCN(CC)c1ccc(-c2ccc(CC(=O)N3C[C@H](C(=O)O)CC[C@@H]3C)cc2)cc1 [BnH12090, (3R,6S)-1-(2-(4′-(diethylamino)-8 1,1′-biphenyl9-4-yl)acetyl)-6-methylpiperidine-3-carboxylic acid] | 85 | 30 | 1.698 |  |
| C[C@H]1CC[C@@H](C(=O)O)CN1C(=O)Cc1cccc(-c2ccncc2)c1 [BnH12091, (3R,6S)-6-methyl-1-(2-(3-(pyridin-4-yl)phenyl)acetyl) piperidine-3-carboxylic acid] | 95 | 85 | 5.013 | excellent effects |
| COc1ccc(-c2cccc(CC(=O)N3C[C@H](C(=O)O)CC[C@@H]3C)c2)cn1 [BnH12092, (3R,6S)-1-(2-(3-(6-methoxypyridin-3-yl)phenyl)acetyl)-6-methylpiperidine-3-carboxylic acid] | 90 | 75 | 3.524 | excellent effects |
| C[C@H]1CC[C@@H](C(=O)O)CN1C(=O)Cc1cccc(-c2ncc(F)cn2)c1 [BnH12093, (3R,6S)-1-(2-(3-(5-fluoropyrimidin-2-yl)phenyl)acetyl)-6-methylpiperidine-3-carboxylic acid] | 85 | 80 | 1.611 |  |
| C[C@H]1CC[C@@H](C(=O)O)CN1C(=O)Cc1cccc(-c2cncnc2)c1 [BnH12095, (3R,6S)-6-methyl-1-(2-(3-(pyrimidin-5-yl)phenyl)acetyl) piperidine-3-carboxylic acid] | 80 | 75 | 2.871 | excellent effects |
